From patent US20240366560A1, “SMALL MOLECULE TREATMENT OF FATTY LIVER DISEASE AND HCC” (ScandiEdge Therapeutics AB, priority 2021, published 2024)

Experiments:
[1] = test system: FASN; assay: FASN protein level by western blot in steatosis-induced HepG2, 7-day drug treatment; format: cell-based; conditions: steatosis-induced HepG2, 7 days of drug treatment, P<0.05, FIG. 2C
Protocol: WT HepG2 was included in this study and cultured by Roswell Park Memorial Institute (RPMI, R2405, Sigma Aldrich) 1640 Medium with 10% fetal bovine serum (FBS) and 1% penicillin-streptomycin (PS). To induce a steatosis model into WT HepG2 cells, high glucose Dulbecco's Modified Eagle Media (DMEM, D0822/D5671, Sigma-Aldrich) containing 10% FBS and 1% PS was used as medium for one week, together with 10 μg/mL insulin and 10 μM T0901317. All of cells were incubated in the incubator with 5% CO2 and 37° C. (Thermo SCIENTIFIC). Fresh medium was provided every two days.
As for drug-screening, different numbers of HepG2 cells were seeded for distinct experiments. More in details, 40,000 cells and 500,000 cells were used for 2-day-drug treatment in 96-well-plate and 6-well plate, respectively, while 80,000 cells and 300,000 cells were used for one-week drug treatment in 96-well plate and 6-well plate, respectively. Detailed drug dosages could be found in FIG. 5. Fresh medium was provided every two days.
Protein content levels were detected by western blot. After the respective treatment of drugs, the cell pellets were lysed in cell lytic M, followed by protein extraction from supernatant (10 min, 13,000r/min centrifuge). Extracted cell lysate was stored in −20° C. Proteins were quantified through Bovine albumin serum (BAS) standard curve with protein assay dye reagent (BIO-RAD). The proteins were separated by SDS-PAGE with 100v in 90 min by mini-protein TGX precast gels (4-15%, 15 wells, 15 μl/well, BIO-RAD), and then transfer to Mini PVDF transfer package through transfer system (Transfer-Turbo, BIO-RAD). After 30 min blocking with 5% skim milk in cold room (4° C.) and washing with TBST, membrane was cut by the size of interested proteins. Primary antibodies were added into the corresponding membrane sections for overnight binding. Then the membranes were washed with TBST, and the secondary antibodies were incubated for 1 h in cold room. The following antibody were used: (Goat pAb to Rb lg, ab205718, abcam; Rb pAb to beta-actin, ab8227, abcam; anti-pklr, HPA006653, SIGMA; Rb pAb to fatty acid synthase, ab99539, abcam). The bindings were imaged by immunostaining and machine (ImageQuant LAS 500). All antibodies were purchased from Abcam online, and βactin was used as global normalized protein. After measurement, the strength of signal for each protein was quantified by ImageJ. The background noise was removed, and all results were normalized by the levels of β-actin.
To further analyse the effect of these drugs on lipid accumulation via the DNL pathway, steatosis was induced to HepG2 by treating the cells with high glucose medium (DMEM), insulin and T0901317 (Hansmannel et al., 2006). […] Therefore, the effects of these two drugs on the de novo synthesis of lipids were investigated based on the steatosis-induced HepG2 model. […] Taken together, it was shown that BX-912 and JNK-IN-5A effectively alleviate the protein expression of PKLR and FASN as well as TG levels in HepG2 cell lines, and thus, it was decided to perform in vivo evaluations to test the effect of these two drugs.

[2] = test system: steatosis-induced HepG2; assay: Triglyceride assay in steatosis-induced HepG2; format: cell-based; conditions: steatosis-induced HepG2, 7 days of drug treatment, FIG. 2D
Protocol: All of cells were incubated in the incubator with 5% CO2 and 37° C. (Thermo […]). Fresh medium was provided every two days.

[3] = test system: HSD-fed rats; assay: In vivo efficacy study in HSD-fed steatosis rats: immunohistochemical 8-OH-dG examination of liver; parameters: species or system rat; conditions: 30 mg/kg, 7 days, HSD 3w group: strong, FIG. 3
Description: In vivo efficacy studies. After 1-week acclimation period, rats were randomly separated into two groups: control group (n=5) and high sucrose group (n=20). The control group was fed with a standard diet while the others consumed high sucrose diet (HSD). Sucrose was purchased from Sigma Chemical Co. (St Louis, MO, USA) and supplied at the dose of 10% in the drink water for two weeks. After 2 weeks, five rats in the HSD group were randomly sacrificed for conformation of NAFLD model. Then, the remaining rats in the HSD group were separated into three sub-groups (n=5): HSD group, HSD plus BX-912 group and HSD plus JNK-IN-5A group. BX-912 and JNK-IN-5A were dissolved in DMSO and were orally administrated using oral gavage for one week (30 mg/kg/day). The HSD group were treated with vehicle solution only. At the end of the experiment, rats were sacrificed after being anesthetized. Blood samples were collected from the abdominal aorta and centrifuged at 8000 rpm for 15 min at 4° C. The plasma was separated and stored at −80° C. until further analysis. Other internal organs, including the heart, adipose tissues, liver, kidney, muscle, intestine (duodenum, ileum, jejunum), pancreas, colon and stomach were immediately removed and then snap frozen in liquid nitrogen and stored at −80° C.; the liver was also fixed in 10% formaldehyde for histopathological examination. Immunohistochemical examination. […]

SMILES | protein expression level of FASN [1] | content of TGs (normalized by cell viability) [2] | 8-OH-dG expression in hepatocytes in liver tissues [3]
N#Cc1c(NC(=O)c2cccc3ccccc23)sc2c1CCCC2 [JNK-IN-5A, N-(3-cyano-4,5,6,7-tetrahydrobenzo [b]thien-2-yl)-1-naphthalenecarboxamide] | significantly reduced | significantly decreased | significantly decreased
O=C(Nc1cccc(Nc2ncc(Br)c(NCCc3cnc[nH]3)n2)c1)N1CCCC1 [BX-912, N-[3-[[5-bromo-4-[[2-(1H-imidazol-5-yl)ethyl]amino]-2-pyrimidinyl]amino]phenyl]-1-pyrrolidinecarboxamide] | significantly reduced | significantly decreased | significantly decreased
